In brackets after ≈: the same amount, converted by molar mass.
Key:
Type in all cases: functional
[1] = tested on: Streptococcus pneumoniae; test: Inhibitory activity against Streptococcus pneumoniae UC9912
[2] = tested on: Mus musculus; test: Dose required to cure 50% of Staphylococcus aureus infected mice when orally administered;value ranges from 3.1-7.8; details: po
[3] = tested on: Staphylococcus aureus; test: Inhibitory activity against Methicillin-resistant Staphylococcus aureus UC6685
[4] = tested on: Staphylococcus epidermidis; test: Inhibitory activity against Methicillin-resistant Staphylococcus epidermidis UC12084
[5] = tested on: Haemophilus influenzae; test: Inhibitory activity against Haemophilus influenzae UC30063
[6] = tested on: Moraxella catarrhalis; test: Inhibitory activity against Moraxella catarrhalis UC30610
[7] = tested on: Mus musculus; test: Dose required to cure 50% of Staphylococcus aureus infected mice in the presence of vancomycin when administered orally.; details: po
[8] = tested on: Enterococcus faecalis; test: Inhibitory activity against Enterococcus faecalis UC9217
[9] = tested on: Staphylococcus aureus; test: Inhibitory activity against Methicillin-susceptible Staphylococcus aureus UC9213
[10] = tested on: Mus musculus; test: Dose required to cure 50% of Staphylococcus aureus infected mice when administered orally;; details: po
[11] = tested on: Mus musculus; test: Dose required to cure 50% of Staphylococcus aureus infected mice in the presence of eperezolid when administered orally; vlue ranges from 1.1-2.8; details: po
[12] = tested on: Mus musculus; test: Dose required to cure 50% of Staphylococcus aureus infected mice in the presence of eperezolid when orally administered; the value ranges from 1.7-4.5; details: po
[13] = tested on: Mus musculus; test: Dose required to cure 50% of Staphylococcus aureus infected mice when administered orally; the value ranges from 1.1-3.3; details: po

Compound	MIC [1] [µg/mL]	ED50 [2] [mg/kg/day]	MIC [3] [µg/mL]	MIC [4] [µg/mL]	MIC [5] [µg/mL]	MIC [6] [µg/mL]	ED50 [7] [mg/kg/day]	MIC [8] [µg/mL]	MIC [9] [µg/mL]	ED50 [10] [mg/kg/day]	ED50 [11] [mg/kg/day]	ED50 [12] [mg/kg/day]	ED50 [13] [mg/kg/day]
CC(=O)NC[C@H]1CN(c2ccc(-n3ccnn3)c(F)c2)C(=O)O1	≤ 0.5	4.7	1 (≈ 3.13 µM)	≤ 0.5	4 (≈ 12.5 µM)	2 (≈ 6.26 µM)	2	1 (≈ 3.13 µM)	1 (≈ 3.13 µM)	–	–	–	–
CC(=O)NC[C@H]1CN(c2ccc(-n3cnnc3)c(F)c2)C(=O)O1	1 (≈ 3.13 µM)	–	8 (≈ 25.1 µM)	4 (≈ 12.5 µM)	> 16	8 (≈ 25.1 µM)	–	8 (≈ 25.1 µM)	16 (≈ 50.1 µM)	> 20	2	–	–
CC(=O)NC[C@H]1CN(c2ccc(-n3cc(C#N)nn3)c(F)c2)C(=O)O1	≤ 0.125	–	0.5 (≈ 1.45 µM)	0.25 (≈ 0.726 µM)	2 (≈ 5.81 µM)	2 (≈ 5.81 µM)	–	1 (≈ 2.9 µM)	1 (≈ 2.9 µM)	–	–	2.8	1.9

From ChEMBL document CHEMBL1132968, “Substituent effects on the antibacterial activity of nitrogen-carbon-linked (azolylphenyl)oxazolidinones with expanded activity against the fastidious gram-negative organisms Haemophilus influenzae and Moraxella catarrhalis” (2000)
